{
  "source": "patent US10292385B2",
  "about": "“Method for supression of infection by plant virus” (priority 2014, dated 2019)",
  "key": {"adult whiteflies": {"test_system": "adult whiteflies", "assay": "Observation of adult whitefly survival after spraying compound A", "assay_type": "in vivo, sweetpotato whiteflies", "conditions": "one week after spraying", "from_the_text": "From the above, it is conceivable that the present invention greatly enhances the effect of suppressing plant virus infection attained by the compound A."}, "TYLCV": {"test_system": "TYLCV", "assay": "TYLCV infection suppression test on chemical-sprayed cherry tomatoes exposed to viruliferous adult sweetpotato whiteflies (Test Example 1)", "assay_type": "in vivo, tomato yellow leaf curl virus (TYLCV)", "conditions": "for Percentage of TYLCV infection suppressed, Determined value: cherry tomato, 16 plants, PCR and symptom after 30 days", "from_the_text": "Seedlings of cherry tomatoes (cultivar: ‘YellowPear’) were transferred to small pots and grown until 2- to 2.5-leaf stages. A chemical having been adjusted to a predetermined concentration by dilution was sprayed thereon in a sufficient amount (the amount was such that the chemical solution dripped from the leaves), and the plants on which the diluted chemical has been sprayed were dried under a shielded condition in a greenhouse. In an aluminum-made large test container (length×width×height =68×44×82 cm, the upper surface and four side surfaces thereof are present as mesh surfaces for aeration), 16 pots containing the chemical-sprayed cherry tomatoes were equally arranged, and installation stands for releasing adult sweetpotato whiteflies were arranged at two positions on a diagonal line in the container. Chemical-resistant adult sweetpotato whiteflies to chemicals such as organophosphorus insecticides, carbamate insecticides, synthetic pyrethroid insecticides, ecdysis regulating insecticides, and neonicotinoid insecticides (hereinafter, chemical resistant adult sweetpotato whiteflies is simply referred to as adult sweetpotato whiteflies) were released for 3 days to suck a cherry tomato for TYLCV acquisition, so that the whiteflies were acquired TYLCV. Note that the chemical-resistant sweetpotato whiteflies used were kindly provided from Kumamoto Agricultural Research Center. The cherry tomato leaves were cut out together with the adult sweetpotato whiteflies settled on the infected cherry tomato, and equally left on the two flying sources in the aluminum-made container. After the leaves wither up, the adult sweetpotato whiteflies spontaneously spread inside the test container. The adult sweetpotato whiteflies were equally scattered to the two flying sources such that the number of individuals released was approximately 1 or 2.5 per plant (e.g.: in the case where the number of the adult sweetpotato whitefly individuals is approximately 1 per plant, 8 whiteflies×2 positions=16 whiteflies in the test container). The release period was set to 7 days. In conducting the test, any test chemical was at a practical concentration. […]"}},
  "data": [
    {"substance": "glycerin diacetomonolaurate [compound A]", "values": [
      {"measurement": "survival of adult whiteflies after spraying", "setting": "adult whiteflies", "value": "adult whiteflies survived one week thereafter"},
      {"measurement": "Percentage of TYLCV infection suppressed, Corrected value", "setting": "TYLCV; 1.0 whiteflies/plant, corrected with the untreatment of test plot 5", "value": "(50.0) %"},
      {"measurement": "Percentage of TYLCV infection suppressed, Determined value", "setting": "TYLCV; chemical-resistant adult sweetpotato whiteflies released 1.0 whiteflies/plant for 7 days", "value": 62.5, "unit": "%"},
      {"measurement": "Percentage of TYLCV infection suppressed, Determined value", "setting": "TYLCV; chemical-resistant adult sweetpotato whiteflies released 2.5 whiteflies/plant for 7 days", "value": 50.0, "unit": "%"},
      {"measurement": "TYLCV infection suppressing effect (in words)", "setting": "TYLCV; whiteflies released for 7 days on sprayed cherry tomato, corrected value compared with theoretical value", "value": "suppressed to some extent"}
    ]}
  ]
}
